What was measured:
Assay in all cases: relative viability (nuclei count vs DMSO), 5 days (fraction); higher = more cells survive
[1] = compound: CN(C)CC1=CC(=CC=C1)N=C(C2=CC=CC=C2)C3=C(NC4=C3C=CC(=C4)C(=O)N(C)C)O + O=C(c1cc(Cc2n[nH]c(=O)c3ccccc23)ccc1F)N1CCN(C(=O)C2CC2)CC1 [Olaparib] (partner 8 µM)
Outline: (§1)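 Lung cancer cell lines in 1536-well plates were dosed by pin tool the day after seeding, either with one drug alone or with a fixed anchor-drug dose plus five library-drug doses (not always all listed) in √10 steps. After 5 days, cells were fixed and their nuclei stained in one step (final 0.05% Triton X-100, 1% formaldehyde, 1 ug/ml Hoechst), then counted on 4× images. Relative viability is the nuclei count in treated wells divided by that in vehicle wells. Values are medians of duplicate plates.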

[2] = compound: CN(C)CC1=CC(=CC=C1)N=C(C2=CC=CC=C2)C3=C(NC4=C3C=CC(=C4)C(=O)N(C)C)O + CC(=O)Nc1cccc(-n2c(=O)n(C3CC3)c(=O)c3c(Nc4ccc(I)cc4F)n(C)c(=O)c(C)c32)c1 [Trametinib] (partner 0.02 µM)
Outline: as §1

[3] = compound: CN(C)CC1=CC(=CC=C1)N=C(C2=CC=CC=C2)C3=C(NC4=C3C=CC(=C4)C(=O)N(C)C)O + N=C(N)NC(=N)NCCc1ccccc1 [Phenformin] (partner 250 µM)
Outline: as §1

[4] = compound: CN(C)CC1=CC(=CC=C1)N=C(C2=CC=CC=C2)C3=C(NC4=C3C=CC(=C4)C(=O)N(C)C)O
Outline: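 Lung cancer cell lines received five library-drug doses (not always all listed) spaced by √10, pinned on vehicle-anchored 1536-well plates after an overnight stay at 37 °C. Five days later, with no medium change, nuclei were Hoechst-stained, imaged at 4× and counted with MetaXpress. Viability is treated-well nuclei relative to vehicle-well nuclei, as a median across plates. Passing plates had control CV below 25% and at least one doubling.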

Cell Line	relative viability ([1]; first compound 0.08 µM)	relative viability ([1]; first compound 0.253 µM)	relative viability ([1]; first compound 0.8 µM)	relative viability ([1]; first compound 2.53 µM)	relative viability ([1]; first compound 8 µM)	relative viability ([2]; first compound 0.08 µM)	relative viability ([2]; first compound 0.253 µM)	relative viability ([2]; first compound 0.8 µM)	relative viability ([2]; first compound 2.53 µM)	relative viability ([2]; first compound 8 µM)	relative viability ([3]; first compound 0.08 µM)	relative viability ([3]; first compound 0.253 µM)	relative viability ([3]; first compound 0.8 µM)	relative viability ([3]; first compound 2.53 µM)	relative viability ([3]; first compound 8 µM)	relative viability ([4]; 0.08 µM)	relative viability ([4]; 0.253 µM)	relative viability ([4]; 0.8 µM)	relative viability ([4]; 2.53 µM)	relative viability ([4]; 8 µM)
LU99A	0.263	0.331	0.254	0.264	0.247	0.504	0.499	0.571	0.482	0.411	0.737	0.874	0.862	0.655	0.757	0.893	0.934	0.966	0.885	0.87
HCC-15	0.681	0.737	0.798	0.561	0.785	0.362	0.392	0.356	0.389	0.434	0.48	0.462	0.503	0.419	0.431	0.996	0.995	1.03	1.05	1.09
HCC-827	0.615	0.65	0.67	0.623	0.685	0.541	0.491	0.429	0.495	0.49	0.374	0.404	0.323	0.396	0.356	0.999	1.03	1.06	0.953	0.916
NCI-H1734	0.547	0.611	0.672	0.633	0.515	0.625	0.701	0.735	0.698	0.579	0.354	0.408	0.385	0.376	0.368	1.1	1.05	1.04	0.962	0.824
NCI-H3122	0.587	0.587	0.678	0.59	0.721	0.225	0.203	0.235	0.245	0.243	0.386	0.38	0.391	0.302	0.354	0.948	0.94	1.08	1.01	1.02
PC-3 [JPC-3]	1.12	1.05	1.01	1.12	1.11	0.709	0.681	0.653	0.678	0.702	0.446	0.485	0.428	0.46	0.496	1.04	1.05	0.866	1.06	1.09
NCI-H2087	0.571	0.507	0.41	0.536	0.537	0.21	0.247	0.201	0.196	0.166	0.478	0.522	0.403	0.48	0.31	0.915	1.07	1.04	0.978	0.956
201T	0.829	0.801	0.839	0.817	0.721	0.71	0.693	0.73	0.716	0.657	0.437	0.449	0.416	0.428	0.41	0.983	1.02	0.997	0.947	0.901
NCI-H1993	0.772	1.1		1.12	1.06	0.464	0.513		0.53	0.592	0.504	0.498	0.586	0.507	0.493	0.979	0.98	0.717	0.944	1.07
NCI-H2085	0.793	0.777	0.776	0.725	0.816	0.509	0.568	0.599	0.643	0.545	0.747	0.711	0.635	0.784	0.638	1.02	1.02	0.98	1.02	1.02
BEN	1.09	0.867	1.1	0.877	0.927	1.01	0.799	1.2	1.01	0.941	0.233	0.274	0.238	0.223	0.267	0.904	0.944	0.988	1	0.909
RERF-LC-KJ	0.971	0.906	0.882	0.9	0.904	0.911	0.837	0.844	0.907	0.846	0.434	0.424	0.412	0.409	0.398	1.08	0.992	0.907	0.982	0.996
SK-MES-1	0.634	0.698	0.588	0.629	0.522	0.524	0.576	0.588	0.497	0.406	0.646	0.597	0.645	0.612	0.522	1	0.993	0.934	0.938	0.914
